According to patent US11458149B1, “TEAD inhibitors and uses thereof” (Ikena Oncology, Inc., priority 2019, dated 2022):
Where two headings read alike, the source gives them in different places.

Assays:
H226 = experiment: Anti-proliferation assay in H226 cells; assay type: cell-based, human
Procedure: (§1) Certain compounds were tested in TEAD reporter assay, and in H226 and H28. A: EC50<0.1 uM; B: 0.1 uM≤EC50≤0.5 uM; C: EC50>0.5 uM.
Individual cell lines were grown in medium according to supplier instructions and seeded into 96-well plates at a density that ensured logarithmic growth over 72 hours. TEAD inhibitor compounds were administered to cells at a top concentration of 10 μm and subsequently a 10 point 3-fold serial dilution was conducted. After 72 hours, proliferation was quantified using Cell TITERGLO™ (Promega, Inc.) and compared to vehicle control. IC50 and EC50 values were generated using XLFit curve fitting software.

TEAD = TEAD reporter assay (Hippo Pathway TEAD Reporter - MCF7 cell line, luciferase); assay type: cell-based, human
Source text: TEAD inhibition can be assayed using Hippo Pathway TEAD Reporter—MCF7 Cell Line (BPS Bioscience, Catalog #: 60618).
The TEAD Reporter—MCF7 cell line contains the firefly luciferase gene under the control of TEAD responsive elements stably integrated into the human breast cancer cell line, MCF7. Inside the cells, basal unphosphorylated YAP/TAZ remains in the nucleus and induces the constitutive expression of luciferase reporter. The cell line is validated for the inhibition of the expression of luciferase reporter by the activators of the Hippo pathway.
• 1) Harvest TEAD Reporter—MCF7 cells from culture in growth medium and seed cells at a density of 35,000 cells per well into white clear-bottom 96-well microplate in 45 μl of assay medium. • 2) Incubate cells at 37° C. in a CO2 incubator for overnight. • 3) Dilute the activators (H2O2 or okadaic acid) stock in assay medium. Add 5 μl of diluted activators to the wells. The final concentration of DMSO in assay medium is 0.1%. • 4) Add 5 μl of assay medium with same concentration of DMSO without activator to control wells. • 5) Add 50 μl of assay medium with DMSO to cell-free control wells (for determining background luminescence). • 6) Set up each treatment in at least triplicate. • 7) Incubate cells at 37° C. in a CO2 incubator for 5-6 hours. • 8) Perform luciferase assay using the ONE-Step™ Luciferase Assay System following the protocol provided: Add 100 μl of ONE-Step™ Luciferase reagent per well and rock at room temperature for ˜15 minutes. Measure luminescence using a luminometer. • 9) Data Analysis: Obtain the background-subtracted luminescence by subtracting the average background luminescence (cell-free control wells) from the luminescence reading of all wells.
as §1

[1] = Homo sapiens, NCI-H226, H226 cells, read-out: H226 EC50
[2] = Homo sapiens, MCF7, TEAD Reporter - MCF7 cells, read-out: TEAD Reporter Assay EC50
[3] = H226 cells, read-out: H226 EC50
[4] = TEAD Reporter - MCF7 cells, read-out: TEAD Reporter Assay EC50

| EC50 (H226; [1]) [µM] | EC50 (TEAD; [2]) [µM] | Compound | further results |
| --- | --- | --- | --- |
| > 0.5 | > 0.5 | C=CC(=O)Nc1ccc(C)c(Oc2cc(C(F)(F)F)ccc2OC)c1 [Compound I-32, N-[3-[2-Methoxy-5-(trifluoromethyl)phenoxy]-4-methyl-phenyl]prop-2-enamide] | – |
| – | > 0.5 | C=CC(=O)Nc1ccc2c(c1)N(c1ccc(C(F)(F)F)cc1)CCC2 [Compound I-34, N-[1-[4-(Trifluoromethyl)phenyl]-3,4-dihydro-2H-quinolin-7-yl]prop-2-enamide] | – |
| 0.1 to 0.5 | > 0.5 | C=CC(=O)Nc1ccc2c(c1)N(c1cccc(C(F)(F)F)c1)CCC2 [Compound I-37, N-[1-[3-(trifluoromethyl)phenyl]-3,4-dihydro-2H-quinolin-7-yl]prop-2-enamide] | – |
| > 0.5 | > 0.5 | C=CC(=O)Nc1cccc(N2CCCc3ccc(C(F)(F)F)cc32)c1 [Compound I-38, N-[3-[7-(trifluoromethyl)-3,4-dihydro-2H-quinolin-1-yl]phenyl]prop-2-enamide] | – |
| > 0.5 | > 0.5 | NC(=O)/C=C/c1cc(Oc2cccc(C(F)(F)F)c2)cc2ncccc12 [Compound I-39, (E)-3-[7-[3-(trifluoromethyl)phenoxy]-5-quinolyl]prop-2-enamide] | – |
| > 0.5 | > 0.5 | C=CC(=O)Nc1ccc(C)c(Oc2cc(C(F)(F)F)ccc2Br)c1 [Compound I-41, N-[3-[2-bromo-5-(trifluoromethyl)phenoxy]-4-methyl-phenyl]prop-2-enamide] | – |
| 0.1 to 0.5 | < 0.1 | C=CC(=O)Nc1cc(Oc2cccc(C(F)(F)F)c2)cc2ncccc12 [Compound I-42] | – |
| – | – | C=CC(=O)Nc1cccc(N2CCCc3cc(C(F)(F)F)ccc32)c1 [Compound I-43] | EC50 (H226; Homo sapiens, NCI-H226, read-out: H226 EC50 (uM)): > 0.5 µM; EC50 (TEAD; Homo sapiens, MCF7, read-out: TEAD Reporter Assay EC50 (uM)): > 0.5 µM |
| < 0.1 | < 0.1 | C=CC(=O)Nc1cc(Oc2cccc(C(F)(F)F)c2)c2cccnc2c1 [Compound I-44, N-[5-[3-(Trifluoromethyl)phenoxy]-7-quinolyl]prop-2-enamide] | – |
| < 0.1 | < 0.1 | C=CC(=O)Nc1cc(Oc2cccc(C(F)(F)F)c2)c(C)cn1 [Compound I-45] | – |
| > 0.5 | > 0.5 | C=CC(=O)N[C@@H]1CCCN(Cc2cccc(C(F)(F)F)c2)C1 [Compound I-47, N-[(3R)-1-[[3-(trifluoromethyl)phenyl]methyl]-3-piperidyl]prop-2-enamide] | – |
| – | > 0.5 | C=CC(=O)N[C@H]1CCCN(Cc2cccc(C(F)(F)F)c2)C1 [Compound I-48, N-[(3S)-1-[[3-(trifluoromethyl)phenyl]methyl]-3-piperidyl]prop-2-enamide] | – |
| > 0.5 | > 0.5 | C=CC(=O)NC1CCN(Cc2cccc(C(F)(F)F)c2)CC1 [Compound I-51, N-[1-[[3-(trifluoromethyl)phenyl]methyl]-4-piperidyl]prop-2-enamide] | – |
| 0.1 to 0.5 | 0.1 to 0.5 | C=CC(=O)NC1CCN(C(=O)c2ccc(C(F)(F)F)cc2)CC1 [Compound I-52, N-[1-[4-(trifluoromethyl)benzoyl]-4-piperidyl]prop-2-enamide] | – |
| 0.1 to 0.5 | 0.1 to 0.5 | C=CC(=O)N1CCC(NCc2ccc(C(F)(F)F)cc2)CC1 [Compound I-53, 1-[4-[[4-(trifluoromethyl)phenyl]methylamino]-1-piperidyl]prop-2-en-1-one] | – |
| > 0.5 | > 0.5 | C=CC(=O)NC1CCN(Cc2ccccc2)CC1 [Compound I-54, N-(1-benzyl-4-piperidyl)prop-2-enamide] | – |
| 0.1 to 0.5 | 0.1 to 0.5 | C=CC(=O)N[C@@H]1CCN(Cc2ccc(C(F)(F)F)cc2)C1 [Compound I-55, N-[(3R)-1-[[4-(trifluoromethyl)phenyl]methyl]pyrrolidin-3-yl]prop-2-enamide] | – |
| – | – | C=CC(=O)NC1CCC(Nc2ccc(C(F)(F)F)cc2)CC1 (stereo not shown) [Compound I-56, N-[4-[4-(trifluoromethyl)anilino]cyclohexyl]prop-2-enamide] | EC50 (H226; [3]): > 0.5 µM; EC50 (TEAD; [4]): > 0.5 µM |

| EC50 (H226; [1]) [µM] | EC50 (TEAD; [2]) [µM] | Compound | further results |
| --- | --- | --- | --- |
| > 0.5 | > 0.5 | C=CC(=O)N[C@H]1CCN(Cc2ccc(C(F)(F)F)cc2)C1 [Compound I-57, N-[(3S)-1-[[4-(trifluoromethyl)phenyl]methyl]pyrrolidin-3-yl]prop-2-enamide] | – |
| – | – | C=CC(=O)NC1CCC(Nc2ccc(C(F)(F)F)cc2)CC1 (stereo not shown) [Compound I-58, N-[4-[4-(trifluoromethyl)anilino]cyclohexyl]prop-2-enamide] | EC50 (H226; [3]): > 0.5 µM; EC50 (TEAD; [4]): > 0.5 µM |
| > 0.5 | > 0.5 | C=CC(=O)N1CCC(Nc2ccc(C(F)(F)F)cc2)CC1 [Compound I-59, 1-[4-[4-(trifluoromethyl)anilino]-1-piperidyl]prop-2-en-1-one] | – |
| < 0.1 | 0.1 to 0.5 | C=CC(=O)N[C@H]1Cc2ccccc2N(Cc2cccc(C(F)(F)F)c2)C1 [Compound I-60, N-[(3S)-1-[[3-(trifluoromethyl)phenyl]methyl]-3,4-dihydro-2H-quinolin-3-yl]prop-2-enamide] | – |
| > 0.5 | > 0.5 | C=CC(=O)N1CCC(NCc2cccc(C(F)(F)F)c2)CC1 [Compound I-61] | – |
| > 0.5 | 0.1 to 0.5 | C=CC(=O)NC1CCN([C@@H](C)c2ccc(C(F)(F)F)cc2)CC1 [Compound I-63, N-[1-[(1S)-1-[4-(Trifluoromethyl)phenyl]ethyl]-4-piperidyl]prop-2-enamide] | – |
| < 0.1 | < 0.1 | C=CC(=O)N1CC[C@H](NCc2ccc(C(F)(F)F)cc2)C1 [Compound I-64, 1-[(3S)-3-[[4-(Trifluoromethyl)phenyl]methylamino]pyrrolidin-1-yl]prop-2-en-1-one] | – |
| > 0.5 | 0.1 to 0.5 | C=CC(=O)N1CC[C@H](NCc2cccc(C(F)(F)F)c2)C1 [Compound I-65, 1-[(3S)-3-[[3-(trifluoromethyl)phenyl]methylamino]pyrrolidin-1-yl]prop-2-en-1-one] | – |
| > 0.5 | > 0.5 | C=CC(=O)NC1CCN(c2cccc3ccccc23)CC1 [Compound I-66, N-[1-(1-Naphthyl)-4-piperidyl]prop-2-enamide] | – |
| 0.1 to 0.5 | 0.1 to 0.5 | C=CC(=O)NC1CCC(Oc2ccc(C(F)(F)F)cc2)CC1 (stereo not shown) [Compound I-67, N-[4-[4-(Trifluoromethyl)phenoxy]cyclohexyl]prop-2-enamide] | – |
| > 0.5 | 0.1 to 0.5 | C=CC(=O)N[C@H]1CCN(Cc2ccc(C(F)(F)F)cc2)c2ccccc21 [Compound I-68, N-[(4S)-1-[[4-(Trifluoromethyl)phenyl]methyl]-3,4-dihydro-2H-quinolin-4-yl]prop-2-enamide] | – |
| – | – | C=CC(=O)NC1CCC(Oc2ccc(C(F)(F)F)cc2)CC1 (stereo not shown) [Compound I-70, N-[4-[4-(Trifluoromethyl)phenoxy]cyclohexyl]prop-2-enamide] | EC50 (H226; [3]): < 0.1 µM; EC50 (TEAD; [4]): < 0.1 µM |
| < 0.1 | < 0.1 | C=CC(=O)N[C@@H]1Cc2ccccc2N(Cc2cccc(C(F)(F)F)c2)C1 [Compound I-71, N-[(3R)-1-[[3-(Trifluoromethyl)phenyl]methyl]-3,4-dihydro-2H-quinolin-3-yl]prop-2-enamide] | – |
| < 0.1 | 0.1 to 0.5 | C=CC(=O)N1C[C@@H]2[C@H](C1)[C@H]2NCc1cccc(C(F)(F)F)c1 [Compound I-72, 1-[(1S,5R)-6-[[3-(trifluoromethyl)phenyl]methylamino]-3-azabicyclo[3.1.0]hexan-3-yl]prop-2-en-1-one] | – |
| – | – | C=CC(=O)NC1(C)CCN(Cc2ccc(C(F)(F)F)cc2)CC1 [Compound I-73, N-[4-methyl-1-[[4-(trifluoromethyl)phenyl]methyl]-4-piperidyl]prop-2-enamide] | EC50 (H226; [3]): > 0.5 µM; EC50 (TEAD; [4]): > 0.5 µM |
| 0.1 to 0.5 | > 0.5 | FC(F)(F)c1ccc(CN2CCC3(CC2)CC(Br)=NO3)cc1 [Compound I-149, 3-bromo-8-[[4-(trifluoromethyl)phenyl]methyl]-1-oxa-2,8-diazaspiro[4.5]dec-2-ene] | – |
| 0.1 to 0.5 | 0.1 to 0.5 | C=CC(=O)N1CC[C@@H](NCc2cccc(C(F)(F)F)c2)C1 [Compound I-386, 1-[(3R)-3-[[3-(Trifluoromethyl)phenyl]methylamino]pyrrolidin-1-yl]prop-2-en-1-one] | – |
| > 0.5 | > 0.5 | C=CC(=O)NC1CCN(Cc2ccc(SC(F)(F)F)cc2)CC1 [Compound I-387] | – |
